Source: patent US10624887B2, “Compositions of (-)-17-(cyclobutylmethyl)morphinan-3,14,-diol” (priority 2010, dated 2020)

Test system: nociception in rats
Test: Radiant heat tail flick test
Format: in vivo, Wistar rats
Settings: butorphanol 1 mg/kg
Excerpt: The tail flick test was first described by D'Amour and Smith (1941), and remains essentially unchanged in application. (See generally D'Amour, F. E. and Smith, D. L., “A method for determining loss of pain sensation”, J. Pharmacol. Exp. Therap., 72:74-79(1941); Dewey, D. L. and Harris, L. S., The Tail-flick test. In: S. Ehrenpreis and A. Neidle (Eds.), Methods in Narcotic Research, Marcel Dekker, Inc., New York, 1975, pp. 101-109; and Dubner, R. and Ren, K., “Assessing transient and persistent pain in animals” In: P. D. Wall and R. Melzack (Eds.), Textbook of Pain, Churchill Livingstone, London, 1999, pp. 359-369). Quite simply, the tail of a rat or mouse is exposed to radiant heat, and the latency to withdraw is determined. The basal heat intensity is set so that naive rats withdraw their tails within 2 to 3 sec. A cut-off latency of 10 sec (i.e., 3 to 4 times basal control value) is commonly employed to prevent tissue damage. […]
Three groups were employed in the present study with each group comprising of 8 animals. […] Area under the curve was calculated using a graph between % MPE and time. Area under the curve was employed as a quantitative measure of the analgesic effect of the treatments.
Nociceptive threshold was measured with the tail flick test (D'Amour and Smith, 1941). […] Tail flick latency is expressed as a percentage of the maximum possible effect (MPE): […]

Oc1ccc2c(c1)[C@@]13CCCC[C@@]1(O)[C@@H](C2)N(CC1CCC1)CC3 [butorphanol, (−)17-(Cyclobutylmethyl)morphinan-3,14-diol]
tail flick latency (intra-gastric, intra-ileal and intra-colonic administration, each, rats): significant increase | antinociceptive effect (area under the curve of % MPE vs time), intra-colonic versus intra-gastric or intra-ileal (tail flick, FIG. 13): significantly greater antinociceptive effect
